The text below walks through data of ChEMBL document CHEMBL3813681, “Synthesis and structure-activity relationship of 2,6-disubstituted pyridine derivatives as inhibitors of β-amyloid-42 aggregation” (Bioorg Med Chem Lett, 2016).

Data set [1] has as its target T1, Amyloid-beta precursor protein (Homo sapiens, UniProt P05067). Kind of data set: Inhibition of Abeta42 (unknown origin) aggregation assessed as ThT fluorescence at 330 uM measured after 24 hrs by ThT fluorescence assay relative to DMSO control. On the set-up: scale not given: the % may be the effect or the level left.
The nature of data set [2]: Aqueous solubility of the compound in PBS at pH 7.4. It is filed as physicochemical.
Data set [3] addresses T1, Amyloid-beta precursor protein. The experiment in a line: Inhibition of Abeta42 (unknown origin) aggregation measured after 24 hrs by ThT fluorescence assay.
A short description of data set [4]: Ratio of drug level in brain to plasma in Swiss mouse at 2 mg/kg, iv measured after 5 mins. It is filed as ADME, organism-based. Particulars: brain and plasma, read-out: BPR.
Data set [5] can be described thus: Half life in human liver S9 fraction. It is filed as ADME, subcellular.
The next data set has as its system Liver. The experiment in a line: Clearance in human liver S9 fraction. It is filed as ADME, subcellular.
Data set [6] in a line: Apparent permeability of the compound from apical to basolateral side. It is filed as physicochemical. Particulars: not told.
The test system of another data set is P-gp. The experiment in a line: Substrate activity at P-gp (unknown origin) assessed as efflux ratio of apparent permeability of the compound. As to conditions: human, not told. It is filed as ADME.
The nature of data set [7]: Lipophilicity, logD of the compound. It is filed as physicochemical. Particulars: octanol/water.
The nature of data set [8]: Half life in Swiss mouse plasma at 2 mg/kg, iv. It is filed as ADME, organism-based.
Data set [9] in a line: AUC in Swiss mouse plasma at 2 mg/kg, iv. It is filed as ADME, organism-based.
Data set [10] is described as follows: Volume of distribution in Swiss mouse plasma at 2 mg/kg, iv. It is filed as ADME, organism-based.
A short description of data set [11]: Cmax in Swiss mouse plasma at 2 mg/kg, iv. Details: dose 2 mg/kg, route intravenous. It is filed as ADME, organism-based.
A short description of data set [12]: Half life in Swiss mouse brain at 2 mg/kg, iv. It is filed as ADME, organism-based.
Data set [13] in a line: AUC in Swiss mouse brain at 2 mg/kg, iv. It is filed as ADME, organism-based.
A short description of data set [14]: Volume of distribution in Swiss mouse brain at 2 mg/kg, iv. It is filed as ADME, organism-based.
A short description of data set [15]: Cmax in Swiss mouse brain at 2 mg/kg, iv. It is filed as ADME, organism-based. Details: dose 2 mg/kg, route intravenous.

In brackets after ≈: the same amount, converted by molar mass.

T1 sequence (P05067 whole entry): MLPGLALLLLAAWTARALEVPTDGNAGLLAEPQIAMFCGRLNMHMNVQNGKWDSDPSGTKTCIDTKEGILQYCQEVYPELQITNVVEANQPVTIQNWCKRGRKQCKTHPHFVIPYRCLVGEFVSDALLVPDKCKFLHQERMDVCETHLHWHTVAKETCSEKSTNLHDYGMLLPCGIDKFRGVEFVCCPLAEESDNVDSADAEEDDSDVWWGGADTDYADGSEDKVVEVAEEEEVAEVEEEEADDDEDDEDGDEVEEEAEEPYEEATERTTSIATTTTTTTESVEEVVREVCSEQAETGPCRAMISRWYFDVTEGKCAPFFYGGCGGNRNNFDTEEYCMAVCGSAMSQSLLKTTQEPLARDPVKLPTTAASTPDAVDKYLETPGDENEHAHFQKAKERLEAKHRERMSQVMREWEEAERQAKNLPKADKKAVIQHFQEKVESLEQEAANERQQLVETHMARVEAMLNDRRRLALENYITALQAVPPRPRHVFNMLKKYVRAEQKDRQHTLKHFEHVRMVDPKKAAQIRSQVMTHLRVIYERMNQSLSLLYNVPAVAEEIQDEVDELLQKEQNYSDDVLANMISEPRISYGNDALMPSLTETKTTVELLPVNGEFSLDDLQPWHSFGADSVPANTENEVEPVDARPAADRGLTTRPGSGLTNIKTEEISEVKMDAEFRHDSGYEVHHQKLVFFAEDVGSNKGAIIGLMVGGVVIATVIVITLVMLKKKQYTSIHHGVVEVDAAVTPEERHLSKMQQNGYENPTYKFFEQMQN

As to `CNc1cccc(CCNc2cccc(NCCc3ccccn3)n2)n1`, the Activity in [1] came out at 12%. Besides, in data set [2], the solubility is above 200 µM.
In the case of `CNc1cccc(CCNc2cccc(CCN(c3ccccn3)c3ccccn3)n2)n1`, the Activity in [1] amounted to 16%. The molecule further displayed an IC50 in data set [3] of 240 µM.
Consider `CNc1cccc(NCCc2cccc(NCCc3ccccn3)n2)n1`, for which, in [4], the Kp at 5 min was 5.98. For the same molecule, the Activity in data set [1] came out at 12%. In addition, the concentration for half-maximal inhibition (IC50) in [3] came to 25 µM. Moreover, the solubility in [2] was above 200 µM. Moreover, the half-life in data set [5] was 10 min; in [8], 37.8 min; in data set [12], 314 min. Moreover, in the data set with Liver, the CLH was 70 µL/min/mg. In addition, the Papp A→B in data set [6] was 49.2 ×10⁻⁶ cm/s. Moreover, the efflux ratio in the data set with P-gp is 0.78. The logD in [7] worked out at 2.96. For the same molecule, the results for the AUC in data set [9] and in [13] were 150 ng·h/mL and 863 ng·h/mL, respectively. The distribution volume (Vd) in data set [10] is 12 L/kg; in data set [14], 18.9 L/kg. Besides, the maximum concentration (Cmax) in data set [11] turned out to be 308 ng/mL; in data set [15] it was 1840 ng/mL.
The molecule `Nc1c(/N=N/c2ccc(-c3ccc(/N=N/c4cc(S(=O)(=O)O)c5ccccc5c4N)cc3)cc2)cc(S(=O)(=O)O)c2ccccc12` [CONGO RED] came in with an IC50 in data set [3] of 1.3 µM.
As to `CNc1cccc(CNc2cccc(CNc3ccccn3)n2)n1`, the Activity in [1] was above 60%. This molecule also registered a solubility in [2] of 18 µM (≈ 5.77 µg/mL).
As for `CNc1cccc(CCNc2cccc(CCNc3ccccn3)n2)n1`, the Activity in [1] was found to be 16%. In data set [3], this molecule showed a 50% inhibitory concentration (IC50) of 280 µM.
With `CNc1cccc(CNc2cccc(CCN(c3ccccn3)c3ccccn3)n2)n1`, the Activity in data set [1] stood at 23%.
Still for that read-out and setting: the result for `CNc1cccc(NCCc2cccc(NCc3ccccn3)n2)n1` reads 14%.
On the same count and under the same terms, under `CNc1cccc(CCNc2cccc(CCCNc3ccccn3)n2)n1` stands 23%.
As to `CNc1cccc(CCNc2cccc(CNc3ccccn3)n2)n1`, the Activity in data set [1] came out at 53%.
As to `CNc1cccc(NCCCc2cccc(NCCCc3ccccn3)n2)n1`, the Activity in data set [1] was determined as 12%. This molecule also came in with a half-maximal inhibitory concentration (IC50) in [3] of 17 µM.
`CNc1cccc(CCNc2cccc(NC)n2)n1`: the Activity in data set [1] came to 23%.
Still for that read-out and setting: under `CNc1cccc(CCCNc2cccc(CCCNc3ccccn3)n2)n1` stands 23%; under `CNc1cccc(NCCc2ccccn2)n1`, 36%; under `CNc1cccc(CNc2cccc(CCNc3ccccn3)n2)n1`, above 60%.

Broadly, the solubility is the dissolved amount per volume that the medium holds. For orientation: IC50 means the concentration at which inhibition is half-maximal. For orientation: half-life means how long it takes for the measured level to halve. By Papp A→B is commonly meant how fast a substance crosses the layer from the apical side. The term efflux ratio denotes the permeability from basolateral to apical divided by that in the opposite direction, in the common usage. As usually defined, the logD is the decadic logarithm of the distribution of all forms, ionised or not, between an organic phase and buffer at a given pH. Broadly, the AUC is the area under the concentration-time curve, a measure of exposure. By Vd is commonly meant a proportionality between amount in the body and measured concentration, not a real space. One may read the Cmax as the maximum level reached in the sampled fluid or tissue.
